System: S. salivarius
Test: Etest MIC susceptibility of clinical S. salivarius isolates to antibiotics
Format: cell-based, Streptococcus salivarius
Experimental: The dorsum of the tongue was swabbed and the specimen collected using a BBL CultureSwab Collection and Transport System (Difco, Detroit, Mich.). The sterile cotton stick was drawn across the dorsum of the tongue 10-12 times while maintaining pressure. Swabs were stored at 4° C. for no more than 24 h. Cultures were diluted 10 and 100-fold using Tryptic Soy Broth (Difco, Detroit, Mich.), and diluted cultures directly inoculated on mitis-salivarius agar (Difco, Detroit, Mich.) using sterile technique. Plates were incubated upside down at 37° C. in 5% carbon dioxide for 24 h. Colonies were screened by morphology consistent with S. salivarius (large, soft, fluffy colonies due to levan production from the sucrose in the agar). This is the standard method used to screen for S. salivarius (24;24). All samples identified based on visual morphology were frozen and stored for subsequent testing (BLIS assays and resistance testing).
Colonies identified as S. salivarius by morphology were tested for susceptibility to clindamycin, erythromycin and tetracycline using the Etest MIC method. Etest strips were purchased from AB Biodisk (Piscataway, N.J., USA), and were used in accordance with the manufacturer's instructions. The concentration gradient of each antimicrobial agent on the Etest strips was 0.016-256 ug/ml. MICs were read directly from the test strip where the zone of inhibition intersected the MIC scale on the strip. Zones of inhibition were compared with standard values (NCCLS M100-S10) to assign a designation of “susceptible,” “intermediate”, or “resistant” to each antimicrobial agent.
Secondarily, determination was made as to whether the S. salivarius recovered was resistant to clindamycin, erythromycin, and tetracycline. Chi-squared analyses were performed to detect a difference among Groups Ia, Ib, and II. We further stratified the acne patients into those receiving oral and/or topical antibiotics, and no antibiotics. These findings were represented as simple percentages, allowing for qualitative comparisons among these groups. […] This accounts for the discrepancy between the numerators in Table 2 and the denominators in Table 3.

[1] = Group II: no acne, no antibiotics, 15 isolates, NCCLS M100-S10
[2] = Group Ia: acne, using antibiotics, 13 isolates, NCCLS M100-S10
[3] = Group Ib: acne, not using antibiotics, 5 isolates, NCCLS M100-S10

SMILES	Proportion of antibiotic-resistant Streptococcus salivarius in the oropharynx [1]	Proportion of antibiotic-resistant Streptococcus salivarius in the oropharynx (Group II: no acne, no antibiotics, 15 isolates, NCCLS M100-S10, listed as erythromycin)	Proportion of antibiotic-resistant Streptococcus salivarius in the oropharynx [2]	Proportion of antibiotic-resistant Streptococcus salivarius in the oropharynx (Group Ia: acne, using antibiotics, 13 isolates, NCCLS M100-S10, listed as erythromycin)	Proportion of antibiotic-resistant Streptococcus salivarius in the oropharynx [3]	Proportion of antibiotic-resistant Streptococcus salivarius in the oropharynx (Group Ib: acne, not using antibiotics, 5 isolates, NCCLS M100-S10, listed as erythromycin)	Proportion of antibiotic-resistant Streptococcus salivarius in the oropharynx (Group II: no acne, no antibiotics, 15 isolates, NCCLS M100-S10, listed as clindamycin)	Proportion of antibiotic-resistant Streptococcus salivarius in the oropharynx (Group Ia: acne, using antibiotics, 13 isolates, NCCLS M100-S10, listed as clindamycin)	Proportion of antibiotic-resistant Streptococcus salivarius in the oropharynx (Group Ib: acne, not using antibiotics, 5 isolates, NCCLS M100-S10, listed as clindamycin)	Proportion of antibiotic-resistant Streptococcus salivarius in the oropharynx (Group II: no acne, no antibiotics, 15 isolates, NCCLS M100-S10, listed as tetracycline)	Proportion of antibiotic-resistant Streptococcus salivarius in the oropharynx (Group Ia: acne, using antibiotics, 13 isolates, NCCLS M100-S10, listed as tetracycline)	Proportion of antibiotic-resistant Streptococcus salivarius in the oropharynx (Group Ib: acne, not using antibiotics, 5 isolates, NCCLS M100-S10, listed as tetracycline)
CC[C@H]1OC(=O)[C@H](C)[C@@H](O[C@H]2C[C@@](C)(OC)[C@@H](O)[C@H](C)O2)[C@H](C)[C@@H](O[C@@H]2O[C@H](C)C[C@H](N(C)C)[C@H]2O)[C@](C)(O)C[C@@H](C)C(=O)[C@H](C)[C@@H](O)[C@]1(C)O [Erythromycin, erythromycin]	3/15 (20%)	20%	9/13 (69%)	69%	2/5 (40%)	40%						
CCC[C@@H]1C[C@@H](C(=O)N[C@@H]([C@H]2O[C@H](SC)[C@H](O)[C@@H](O)[C@H]2O)[C@H](C)Cl)N(C)C1 [Clindamycin, clindamycin]	1/15 (7%)		9/13 (69%)		1/5 (20%)		7%	69%	20%			
CN(C)[C@@H]1C(O)=C(C(N)=O)C(=O)[C@@]2(O)C(O)=C3C(=O)c4c(O)cccc4[C@@](C)(O)[C@H]3C[C@@H]12 [Tetracycline, tetracycline]	4/15 (27%)		10/13 (77%)		2/5 (40%)					27%	77%	40%

Source: US8415289B2, “Bacterial-derived BLIS for treatment of acne” (The Trustees of the University of Pennsylvania, priority 2005, dated 2013)
